Results taken from patent US12325710B2, “Substituted 1,2,3,4,5,6-hexahydroazepino[4,5-b]indoles for treating brain disorders” (priority 2019, dated 2025).
“Also recorded” adds a separate entry of the source.

Legend:
larval zebrafish = assay: Heart rate and arrhythmia in immobilized larval zebrafish
[1] = system: rat embryonic cortical neurons (DIV20); assay: Spinogenesis in mature cortical cultures (DIV20); type: cell-based; conditions: DIV20, treatment for 24 h
Experimental: Spinogenesis Experiments. Spinogenesis experiments were performed as previously described with the exception that cells were treated on DIV19 and fixed 24 h after treatment on DIV20. (Ly, C. et al., 2018) The images were taken on a Nikon HCA Confocal microscope a with a 100×/NA 1.45 oil objective. DMSO and ketamine (10 μM) were used as vehicle and positive controls, respectively.

mouse 5-HT2A receptors = mouse 5-HT2A receptors (Mus musculus, UniProt P35363); assay: 5-HT2A Gq-mediated calcium flux functional assay (mouse); type: cell-based
Chain of mouse 5-HT2A receptors (P35363 whole entry, canonical isoform): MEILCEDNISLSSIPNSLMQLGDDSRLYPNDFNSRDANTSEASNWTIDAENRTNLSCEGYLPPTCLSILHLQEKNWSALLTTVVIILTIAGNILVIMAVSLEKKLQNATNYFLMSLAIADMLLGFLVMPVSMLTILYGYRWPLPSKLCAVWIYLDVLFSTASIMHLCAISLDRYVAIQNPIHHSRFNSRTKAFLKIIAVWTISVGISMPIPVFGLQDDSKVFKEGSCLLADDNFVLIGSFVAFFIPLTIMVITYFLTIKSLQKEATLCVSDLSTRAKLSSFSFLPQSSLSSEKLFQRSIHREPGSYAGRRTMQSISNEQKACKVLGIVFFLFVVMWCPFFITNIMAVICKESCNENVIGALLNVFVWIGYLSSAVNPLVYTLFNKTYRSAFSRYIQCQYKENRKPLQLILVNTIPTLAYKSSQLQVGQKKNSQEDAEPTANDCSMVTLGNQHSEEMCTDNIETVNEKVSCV
Experimental: Serotonin and Opioid Receptor Functional Assays. Functional assay screens at 5-HT and opioid receptors were performed in parallel using the same compound dilutions and 384-well format high-throughput assay platforms. Assays assessed activity at all human isoforms of the receptors, except where noted for the mouse 5-HT2A receptor. Receptor constructs in pcDNA vectors were generated from the Presto-Tango GPCR library with minor modifications. All compounds were serially diluted in drug buffer (HBSS, 20 mM HEPES, pH 7.4 supplemented with 0.1% bovine serum albumin and 0.01% ascorbic acid) and dispensed into 384-well assay plates using a FLIPR^TETRA (Molecular Devices). Every plate included a positive control such as 5-HT (for all 5-HT receptors), DADLE (DOR), salvinorin A (KOR), and DAMGO (MOR). For measurements of 5-HT2A, 5-HT2B, and 5-HT2C Gq-mediated calcium flux function, HEK Flp-In 293 T-Rex stable cell lines (Invitrogen) were loaded with Fluo-4 dye for one hour, stimulated with compounds and read for baseline (0-10 seconds) and peak fold-over-basal fluorescence (5 minutes) at 25° C. on the FLIPR^TETRA. For measurement of 5-HT6 and 5-HT7a functional assays, Gs-mediated cAMP accumulation was detected using the split-luciferase GloSensor assay in HEKT cells measuring luminescence on a Microbeta Trilux (Perkin Elmer) with a 15 min drug incubation at 25° C. […]

C57BL/6J mice = assay: Head-twitch response (HTR) assay; conditions: intraperitoneal; fumarate salts; 5-MeO-DMT 10 mg/kg as positive control

## COc1ccc2c3c([nH]c2c1)CCN(C)CC3 [TBG]
Larval zebrafish
  heart rate (bradycardia): Neither IBG nor TBG induced these undesirable phenotypes; also recorded: do not induce bradycardia
  likelihood of arrhythmias (ratio of atrium to ventricle BPM): Neither IBG nor TBG induced these undesirable phenotypes
[1]
  dendritic spine density: increases dendritic spine density to a comparable extent as ibogaine
Mouse 5-HT2A receptors
  agonist activity at mouse 5-HT2A receptors: potent agonist activity
C57BL/6J mice
  hallucinogenic potential (head-twitch response): did not display hallucinogenic potential
